How the values were obtained:
Assay type in all cases: biochemical
[1] = target: T1, Complex I from Y. lipolytica (Yarrowia lipolytica, UniProt Q9B6E8+Q9UUT7+Q9UUU1+Q9UUU2); test: NADH:O2 oxidoreduction (FET) in CI proteoliposomes with AOX, spectrophotometric; conditions: 200 μM NADH
T1 construct: gene nubm; complex purified from Y. lipolytica, whole multi-subunit enzyme, reconstituted in proteoliposomes with E. coli F1FO ATP synthase

P. pastoris complex I [2] = target: T2, P. pastoris complex I (Komagataella pastoris, UniProt E1UWA8+E1UWB5+E1UWC2); test: as above; conditions: membrane Q10 concentration; 200 μM NADH, pH 7.5, 32 °C
T2 construct: gene nucm; native complex purified from P. pastoris, whole multi-subunit enzyme, reconstituted in proteoliposomes with E. coli F1FO ATP synthase; with NADH dehydrogenase [ubiquinone] flavoprotein 1, mitochondrial (51 kDa subunit)

P. pastoris complex I [3] = target: T2, P. pastoris complex I; test: NAD+ reduction by RET in CI-F1FO proteoliposomes with GlpD, spectrophotometric; conditions: membrane concentration, Δp-linked, ATP, rac-G3P, β-CD, preheated 37 °C 15 min, assay pH 7.5, 32 °C
[4] = target: T3, complex I from B. taurus (bovine complex I) (Bos taurus, UniProt P03887+P17694+P25708+P42026); test: NADH:O2 oxidoreduction (FET) in CI proteoliposomes with AOX, spectrophotometric
T3 construct: gene NDUFS2; AOX or GlpD added; with NADH dehydrogenase [ubiquinone] flavoprotein 2, mitochondrial; NADH-ubiquinone oxidoreductase 75 kDa subunit, mitochondrial; NADH dehydrogenase [ubiquinone] iron-sulfur protein 3, mitochondrial; NADH dehydrogenase [ubiquinone] iron-sulfur protein 8, mitochondrial; NADH-ubiquinone oxidoreductase chain 2; NADH-ubiquinone oxidoreductase chain 3; NADH-ubiquinone oxidoreductase chain 4; NADH-ubiquinone oxidoreductase chain 4L; NADH-ubiquinone oxidoreductase chain 5; NADH-ubiquinone oxidoreductase chain 6

[5] = target: T4, complex I from mouse heart (Mus musculus) (Mus musculus, UniProt P03888+Q91WD5+Q91YT0+Q9DC70); test: as above; conditions: 200 μM NADH, membrane Q10, pH 7.5, 32 °C
T4 construct: gene Ndufv1; native complex purified from mouse heart, whole multi-subunit enzyme, reconstituted in proteoliposomes with E. coli F1FO ATP synthase

[6] = target: T4, complex I from mouse heart (Mus musculus); test: NAD+ reduction by RET in CI-F1FO proteoliposomes with GlpD, spectrophotometric; conditions: Δp-linked RET; 1 mM NAD+, ATP, rac-G3P, β-CD, pH 7.5, 32 °C

COC1=C(OC)C(=O)C(C/C=C(\C)CC/C=C(\C)CC/C=C(\C)CC/C=C(\C)CC/C=C(\C)CC/C=C(\C)CC/C=C(\C)CC/C=C(\C)CC/C=C(\C)CCC=C(C)C)=C(C)C1=O [Q10]
NADH:O2 oxidoreduction (FET) in CI proteoliposomes with AOX, spectrophotometric ([1]; membrane Q10 as acceptor, pH 7.5, 32 °C): Complex I from Y. lipolytica consistently showed remarkably high rates of NADH oxidation in proteoliposomes
KM (Q10) (P. pastoris complex I [2]): The KM values for both Q10 and Q10H2 were both lower for P. pastoris

COc1c(O)c(C)c(C/C=C(\C)CC/C=C(\C)CC/C=C(\C)CC/C=C(\C)CC/C=C(\C)CC/C=C(\C)CC/C=C(\C)CC/C=C(\C)CC/C=C(\C)CCC=C(C)C)c(O)c1OC [Q10H2]
KM (Q10H2) (P. pastoris complex I [3]): the KM for Q10H2 was again significantly higher than for Q10

C/C=C(\C)[C@H](O)[C@H](C)/C=C(C)/C=C/C/C(C)=C/Cc1nc(OC)c(OC)c(O)c1C [piericidin A]
IC50 [4]: 7.8 ± 0.1 nM

NC(=O)C1=CN([C@@H]2O[C@H](COP(=O)(O)OP(=O)(O)OC[C@H]3O[C@@H](n4cnc5c(N)ncnc54)[C@H](O)[C@@H]3O)[C@@H](O)[C@H]2O)C=CC1 [NADH]
NADH:O2 oxidoreduction (FET) in CI proteoliposomes with AOX, spectrophotometric ([1]; membrane Q10, pH 7.5, 32 °C): Complex I from Y. lipolytica consistently showed remarkably high rates of NADH oxidation in proteoliposomes
NADH:O2 oxidoreduction (FET) in CI proteoliposomes with AOX, spectrophotometric [5]: Representative FET activities for proteoliposomes containing complex I from B. taurus (Bt), M. musculus (Mm)

NC(=O)c1ccc[n+]([C@@H]2O[C@H](COP(=O)(O)OP(=O)(O)OC[C@H]3O[C@@H](n4cnc5c(N)ncnc54)[C@H](O)[C@@H]3O)[C@@H](O)[C@H]2O)c1 [NAD^+]
NAD+ reduction by RET in CI-F1FO proteoliposomes with GlpD, spectrophotometric [6]: by Δp-linked NAD^+ reduction (Figure 6B), that mouse complex I is capable of RET

Reference: paper PMC9026280, “Reverse Electron Transfer by Respiratory Complex I Catalyzed in a Modular Proteoliposome System” (Journal of the American Chemical Society, 2022)
